In US4555572A, “Pyrazolo[3,4,5-kl]acridine compositions and methods for their production and use” (Warner-Lambert Company, priority 1984, dated 1985):
In brackets after ≈: the same amount, converted by molar mass. Structures can show the parent of a compound that is named as a salt. Where two headings read alike, the source gives them in different places.

Experiments:
L1210 cells = experiment: PDC test, L1210 cell growth; format: cell-based, murine; conditions: Mus musculus, read-out: PDC ID50
Procedure: (c) Another test protocol is the PDC test. L1210 cells, a murine leukemia cell line, were grown in RPMI 1640 supplemented with 10% fetal bovine serum and genamicin (50 μg/ml). Drug dilutions were prepared in the appropriate solvent and 20 μl of each dilution were added to 24-well Linbro tissue culture plates followed by the addition of 2.0 ml of cell suspension containing 3×10^4 cells per ml. Solvent and medium controls were included in each test. After incubation at 37° C. for three days in 5% CO2 in air, the contents of each well were removed and the cells counted in a ZBI Coulter counter. Per cent growth was calculated relative to the controls and the levels of drug activity were expressed as ID50 in terms of molarity (M).

Escherichia coli = experiment: in vitro antibacterial (ABMF) microdilution susceptibility test; format: cell-based; conditions: Mueller-Hinton broth, 37° C., 16-24 hours, read-out: ABMF Test M.I.C. E. coli
From the text: (§1) (d) Still another test protocol is the in vitro antibacterial (ABMF) test which is a recognized standard microdilution susceptibility procedure in Mueller-Hinton broth against gram-positive and gram-negative bacterial test organisms. The procedure is a modification of a state-of-the-art procedure reported in Manual of Clinical Microbiology, Lennette, E. H., ed., by Barry, A. L. and C. Thornsberry at pages 463-474 and by Gavan, T. L. and A. L. Barry at pages 459-462, American Society for Microbiology, Washington, 1980.
(§2) In the test, a given bacterial culture is used to inoculate individaul test wells of microdilution trays containing growth medium and test compound, the latter in a microdilution series: 1000, 333, 111, 37, 12, 4, 1.4, and 0.46 micrograms per milliliter. […] For convenience, values are reported for Escherichia coli, Branhamella catarrhalis, Alcaligenes viscolactis, Streptococcus pneumoniae, and Bacillus cereus

Branhamella catarrhalis = experiment: as above; format: cell-based; conditions: Moraxella catarrhalis; Mueller-Hinton broth, 37° C., 16-24 hours; read-out: ABMF Test M.I.C. B. cata.
From the text: as §1, §2

Streptococcus pneumoniae = experiment: as above; format: cell-based; conditions: Mueller-Hinton broth, 37° C., 16-24 hours, read-out: ABMF Test M.I.C. S. pneu.
From the text: as §1, §2

Bacillus cereus = experiment: as above; format: cell-based; conditions: Mueller-Hinton broth, 37° C., 16-24 hours, read-out: ABMF Test M.I.C. B. cere.
From the text: as §1, §2

Alcaligenes viscolactis = experiment: as above; format: cell-based; conditions: Mueller-Hinton broth, 37° C., 16-24 hours, read-out: ABMF Test M.I.C. A. visc.
From the text: as §1, §2

[1] = system: lymphocytic leukemia P388; experiment: in vivo lymphocytic leukemia P388 test; parameters: species or system CD2 F1 mice; conditions: Mus musculus, P388, ip, 120 h, intraperitoneally once daily for five days, read-out: P388 in vivo T/C × 100
Procedure: Another test protocol is the in vivo lymphocytic leukemia P388 test. The animals used are either male or female CD2 F1 mice, six or seven animals per test group. The tumor transplant is by intraperitoneal injection of dilute ascitic fluid containing cells of lymphocytic leukemia P388. The test compounds are administered intraperitoneally once daily for five consecutive days at various doses following tumor inoculation. The animals are weighed and survivors are recorded on a regular basis for 30 days. A compound is designated "toxic" if, at a given dose, all animals died prior to four days after the first injection of drug. A ratio of survival time for treated (T)/control (C) animals is calculated. A criterion for efficacy is a ratio T/C times 100 greater than or equal to 125. See Cancer Chemotherapy Reports, Part 3, 3, 1 (1972) for a comprehensive discussion of the protocol.

HCT-8 cells = experiment: in vitro proliferating human colon adenocarcinoma (HCA) cell screen, HCT-8; format: cell-based; conditions: HCT-8 cells, 60 to 65 hours, ED50, read-out: HCA ED50 Avg.
Procedure: (a) One test protocol is the in vitro proliferating human colon adenocarcinoma (HCA) cell screen. In this test, HCT-8 cells (HCA cell line received from Yale University) are trypsinized using trypsin-EDTA. A single cell suspension is achieved by passing the cells through a 26 gauge needle with a 20-cc syringe. A cell suspension is prepared using RPMI 1640+10% FCS+50 μg/ml gentamicin sulfate with a cell concentration is approximately 30,000 cells/ml. The cell suspension is dispensed in Linbro 24-well plates; 1 ml/well. The plates are incubated for approximately 48 hours at 37° C. in a 5% CO2 atmosphere. At this time test compounds are added in the appropriate concentration. Five μl of the 200 μg/ml stock solution is added to each well in a primary test. […] of the appropriate dilution is added to each well for a titration test. The plates are reincubated an additional 60 to 65 hours at 37° C. in a 5% CO 2 atmosphere. The cells are lysed using a mix of cationic surfactant, glacial acetic acid, and sodium chloride. Two ml of the lysed cell suspension from each well is added to 8 ml of diluent. The number of nuclei is determined using a Coulter counter (ZBI model), and a percent growth for each drug concentration is calculated. From this, and ID50 (molar concentration of compound that results in 50% inhibition of growth) is determined.

SMILES	IC50 (L1210 cells; 72 h, L1210 cells, three days)	MIC (Escherichia coli)	MIC (Branhamella catarrhalis)	MIC (Streptococcus pneumoniae)	MIC (Bacillus cereus)	MIC (Alcaligenes viscolactis)	response vs control in vivo at 3.12 mg/kg [1]	response vs control in vivo at 6.25 mg/kg [1]	IC50 (HCT-8 cells)	response vs control in vivo at 100 mg/kg ([1]; 100 mg/kg)	response vs control in vivo at 200 mg/kg ([1]; 200 mg/kg)	response vs control in vivo at 1.56 mg/kg [1]	response vs control in vivo at 12.5 mg/kg [1]	response vs control in vivo at 0.39 mg/kg ([1]; 0.39 mg/kg)	response vs control in vivo at 0.78 mg/kg ([1]; 0.78 mg/kg)	IC50 (L1210 cells; L1210, 72 h)
CCN(CC)CCn1nc2c3c(c([N+](=O)[O-])ccc31)Nc1cc(OC)cc(OC)c1-2.CS(=O)(=O)O.O [Example 24, N,N-Diethyl-8,10-dimethoxy-5-nitropyrazolo[3,4,5-kl]acridine-2(6H)-ethanamine, methanesulfonate, hydrate (1:1:1)]	490 nM	4.1 µg/mL	< 0.46 µg/mL	1.4 µg/mL	< 0.46 µg/mL	< 0.46 µg/mL										
COc1cc(OC)c2c(c1)-c1nn(CCN(C)C)c3ccc([N+](=O)[O-])c(c13)N2.CS(=O)(=O)O [Example 38, 7,9-Dimethoxy-N,N-dimethyl-5-nitropyrazolo[3,4,5-kl]acridine-2(6H)-ethanamine, methanesulfonate (1:1)]		1000 µg/mL	1.4 µg/mL	< 0.46 µg/mL	< 0.46 µg/mL	< 0.46 µg/mL			64 nM	119%	128%					
CCCCOc1ccc2c(c1)-c1nn(CCNCCO)c3ccc([N+](=O)[O-])c(c13)N2 [Example 41, 2-[[2-(9-Butoxy-5-nitropyrazolo[3,4,5-kl]acridin-2(6H)-yl)ethyl]amino]ethanol, methanesulfonate, hemihydrate]		3.7 µg/mL	1.4 µg/mL	12.3 µg/mL	12.3 µg/mL	< 0.46 µg/mL	147%	159%	340 nM			141%	174%			
Cc1ccc2c(c1)-c1nn(CCNCCO)c3ccc([N+](=O)[O-])c(c13)N2.Cl [Example 42, 2-[[2-(9-Methyl-5-nitropyrazolo[3,4,5-kl]acridin-2(6H)-yl)ethyl]amino]ethanol, monohydrochloride]	590 nM	< 0.46 µg/mL	< 0.46 µg/mL	< 0.46 µg/mL	< 0.46 µg/mL	< 0.46 µg/mL										
CN(C)CCCn1nc2c3c(c([N+](=O)[O-])ccc31)Nc1ccc(O)cc1-2 [Example 44, 2-[3-(Dimethylamino)propyl]-2,6-dihydro-5-nitropyrazolo[3,4,5-kl]acridin-9-ol, methanesulfonate]		< 0.46 µg/mL	< 0.46 µg/mL	0.46 µg/mL	0.46 µg/mL	< 0.46 µg/mL	270%		12 nM			200%		162%	182%	
CCOc1ccc2c(c1)-c1nn(CCCN(C)C)c3ccc([N+](=O)[O-])c(c13)N2.CS(=O)(=O)O [Example 46, 9-Ethoxy-N,N-dimethyl-5-nitropyrazolo[3,4,5-kl]acridine-2(6H)-propanamine, methanesulfonate (1:1)]		12.3 µg/mL	1.4 µg/mL	4.1 µg/mL	4.1 µg/mL	< 0.46 µg/mL	137%	169%	55 nM			132%	232%			
CCN(CC)CCn1nc2c3c(c([N+](=O)[O-])cc([N+](=O)[O-])c31)Nc1ccc(OCc3ccccc3)cc1-2 [Example 52, N,N-Diethyl-3,5-dinitro-9-(phenylmethoxy)pyrazolo [3,4,5-kl]-2(6H)-ethanamine, methanesulfonate, hemihydrate]																750 nM

The next lines start with results.

IC50 (L1210 cells; 72 h, L1210 cells, three days)	MIC (Escherichia coli)	MIC (Branhamella catarrhalis)	MIC (Streptococcus pneumoniae)	MIC (Bacillus cereus)	MIC (Alcaligenes viscolactis)	SMILES	response vs control in vivo at 3.12 mg/kg [1]	response vs control in vivo at 6.25 mg/kg [1]	IC50 (HCT-8 cells)	response vs control in vivo at 100 mg/kg ([1]; 100 mg/kg)	response vs control in vivo at 200 mg/kg ([1]; 200 mg/kg)	response vs control in vivo at 1.56 mg/kg [1]	response vs control in vivo at 12.5 mg/kg [1]	response vs control in vivo at 0.39 mg/kg ([1]; 0.39 mg/kg)	response vs control in vivo at 0.78 mg/kg ([1]; 0.78 mg/kg)	IC50 (L1210 cells; L1210, 72 h)
460 nM	111 µg/mL (≈ 238 µM)	12.3 µg/mL (≈ 26.4 µM)	12.3 µg/mL (≈ 26.4 µM)	37 µg/mL (≈ 79.3 µM)	4.1 µg/mL (≈ 8.79 µM)	CCN(CC)CCOc1ccc2c(c1)-c1nn(CCN(CC)CC)c3ccc([N+](=O)[O-])c(c13)N2 [Example 21]										
820 nM						CCN(CC)CCn1nc2c3c(c([N+](=O)[O-])ccc31)Nc1ccc(OCc3ccc(OC)cc3)cc1-2 [Example 22, N,N-Diethyl-9-[(4-methoxyphenyl)methoxy]-5-nitropyrazolo[3,4,5-kl]acridine-2(6H)-ethanamine, methanesulfonate (salt) (1:1)]										
70 nM	< 0.46 µg/mL	< 0.46 µg/mL	< 0.46 µg/mL	< 0.46 µg/mL	< 0.46 µg/mL	CCN(CC)CCn1nc2c3c(c([N+](=O)[O-])ccc31)Nc1ccc(OC)c(Cl)c1-2 [Example 25, 10-Chloro-N,N-diethyl-9-methoxy-5-nitropyrazolo[3,4,5-kl]acridine-2(6Hethanamine, methanesulfonate, hydrate]										
7.2 nM						CCN(CC)CCn1nc2c3c(c([N+](=O)[O-])ccc31)Nc1ccc(OC(=O)C(C)(C)C)cc1-2 [Example 28, 2-[2-(Diethylamino)ethyl]-2,6-dihydro-5-nitropyrazolo[3,4,5-kl]acridin-9-ol, 2,2-dimethylpropanoate (ester), methanesulfonate (salt) (1:1)]	221%	223%								
4.3 nM	37 µg/mL	12.3 µg/mL	< 0.46 µg/mL	37 µg/mL	< 0.46 µg/mL	CCCCCCCC(=O)Oc1ccc2c(c1)-c1nn(CCN(CC)CC)c3ccc([N+](=O)[O-])c(c13)N2 [Example 30, Octanoic acid,[2-[2-(diethylamino)ethyl]-2,6-dihydro-5-nitropyrazolo[3,4,5-kl]acridin-9-yl]ester, methanesulfonate (1:1), hemihydrate]										
3 nM						CCN(CC)CCn1nc2c3c(c([N+](=O)[O-])ccc31)Nc1ccc(OC(=O)c3ccccc3)cc1-2 [Example 31, 2-[2-(Diethylamino)ethyl]-2,6-dihydro-5-nitropyrazolo [3,4,5-kl]acridin-9-ol, benzoate (ester), methanesulfonate (1:1) (salt), monohydrate]										
